Data from the supplement of paper PMC8837787.

System: Saccharomyces cerevisiae ABC16-Green Monster
Assay: growth inhibition at single dose (up to 150 µM), below the 70% cut-off for dose-response; higher = more potent
Conditions: 18 h; 30 °C; YPD
Outline: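 The entry is percent growth inhibition of drug-sensitive S. cerevisiae ABC16-Green Monster cells. After overnight growth in YPD at 30 °C, cells were diluted to OD600 0.1–0.2 and exposed to each library compound at 150 µM in 200 µl per well, in biological duplicates with untreated cultures beside them, and OD600 was read at 0 h and after 18 h at 30 °C. Any compound under 70% in both replicates was not carried to dose-response.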

SMILES | growth inhibition at single dose [%]
Cc1cc(=O)nc(N/N=C/c2c(C)nn(-c3cccc(C(F)(F)F)c3)c2Cl)[nH]1 | < 70
COc1ccc(-c2nc(C(=O)N3CCc4ccccc43)cs2)cc1OC | < 70
Cc1ccc(Sc2nc(-c3cccs3)ns2)cc1 | < 70
Cc1nccc(-c2cccc(N/N=C(\C#N)S(=O)(=O)c3ccccn3)c2)n1 | < 70
COc1ccc(F)cc1CN(Cc1ccc(C(=O)NC2CC2)cc1)Cc1ccco1 | < 70
Brc1c(-c2ccc3c(c2)OCO3)nc2ncccn12 | < 70
CC(=O)NCC1CN(c2ccc(-c3ccc(CNCc4cn[nH]n4)cc3)c(F)c2)C(=O)O1 (centres undefined) | < 70
CCn1c2c(c(=N)c3c1CCC3)CCCC2 | < 70
CC(C)(C)OC(=O)N1CCN(c2nccc(-c3ccc(-c4ccc(Cl)cc4)s3)n2)CC1 | < 70
COc1ccc(C(=O)Nc2ccc3nc(N4CCCCC4)cc(C)c3c2)cc1OC | < 70
COc1ccc(-c2cc3c(SCC(=O)Nc4cc(C(F)(F)F)ccc4Cl)nccn3n2)cc1 | < 70
COc1cc(CNCCc2ccc(Cl)cc2)cc(OC)c1O | < 70
CCOC(=O)C1CCN(C(=O)CN2C(=O)c3ccccc3C2c2c[nH]c3ccccc23)CC1 (centres undefined) | < 70
Cc1cc(=O)nc(N/N=C/c2c(C)nn(-c3ccccc3Cl)c2Cl)[nH]1 | < 70
CCOC(=O)N1CCC(N/C=C(\C#N)S(=O)(=O)c2ccc(Cl)cc2)CC1 | < 70
O=C(Nc1ccccc1O)c1ccc(-c2ccc(Cl)cc2Cl)o1 | < 70
CCOC(=O)c1ccc2nc(-c3ccccc3)cc(O)c2c1 | < 70
COc1cccc2c(C)nc(N=C(N)N)nc12 | < 70
COc1ccc(C2=C(c3ccc(OC)cc3)C3(c4ccccc4)C(=O)C2(c2ccccc2)C2C(=O)N(c4ccc(C)cc4)C(=O)C23)cc1 (centres undefined) | < 70
CC1CC2=C(CC1CNCCCN(C)C)C(C)(C)CCC2 (centres undefined) | < 70
CCOc1cc(Cl)c(C(C)NC(=O)c2ccccc2)cc1OCC (centres undefined) | < 70
COC(=O)c1ccc(C2C3=C(O)CC(c4ccc(F)cc4)CC3=Nc3ccccc3N2C(=O)c2ccccc2)cc1 (centres undefined) | < 70
CN1CCCN(C(=O)CCNC(=O)/C=C/c2ccco2)c2nc3ccccc3nc21 | < 70

SMILES | growth inhibition at single dose [%]
CC1CCN(Cc2c(O)ccc3cc(-c4nc5ccccc5s4)c(=O)oc23)CC1 | < 70
CCc1sc(C(=O)Nc2cnc3ccccc3c2)cc1C | < 70
CC(Oc1cccc(Cl)c1)C(=O)Nc1ccc2oc(-c3ccncc3)nc2c1 (centres undefined) | < 70
CCOc1ccc(CCNC(=O)c2cccs2)cc1OCC | < 70
C[C@H](C(N)=O)N1CCCC[C@@H]1c1ccc(OCc2cccc(F)c2)cc1 | < 70
O=C(Nc1ccccc1O)c1ccc(Cn2ccnc2)cc1 | < 70
CC(Oc1ccc(Cl)cc1)C(=O)Nc1sccc1C(N)=O (centres undefined) | < 70
Cc1cccc2nc(C(=O)Nc3ccc4c(c3)nc3n4CCCCC3)cn12 | < 70
CCOc1ccccc1CNC(=O)C1c2ccccc2C(=O)N(CC(C)C)C1c1cccs1 (centres undefined) | < 70
CN(C)CCCNc1c2ccccc2nc2ccccc12 | < 70
Cc1nn(Cc2ccccc2)c(Cl)c1C(=O)NC1CCCCCC1 | < 70
CC(C)(C)n1nc(Cc2ccc(F)c(Cl)c2)c2c(N)ncnc21 | < 70
Cc1cccc(C(=O)Nc2ccnc(N(C)C3CCN(CC(C)C)CC3)c2)c1 | < 70
O=C(Nc1ccsc1C(=O)NC1CCCCC1)c1ccc(F)cc1 | < 70
O=C(Cn1ncc(Cl)c(Cl)c1=O)NCC(=O)Nc1ccc(F)c(F)c1F | < 70
O=C1O[C@@H](CO)CN1c1cc(F)c(C2=CCN(Cc3ccccc3)CC2)c(F)c1 | < 70
CCNC(=O)c1nn(CC2CC2)c2c1CN(C(=O)c1cc(-c3ccccc3F)n[nH]1)CC2 | < 70
COc1ccccc1N1CCN(C(CNS(=O)(=O)c2ccc(Cl)cc2)c2cccnc2)CC1 (centres undefined) | < 70
Cc1cc(C)c2c(C)c(C(=O)Nc3nc4ccccc4s3)sc2n1 | < 70
O=C(N[C@H](Cc1ccccc1)C(=O)Nc1ccccc1N1CCOCC1)c1cccs1 | < 70
CCOc1ccc2nc(C)cc(Nc3ccc(Br)cc3)c2c1 | < 70
CCOC(=O)c1cnc2c(C)cccc2c1Nc1ccc(C(C)=O)cc1 | < 70
Nc1ccc(-c2nc3cc(Cc4ccc5[nH]c(-c6ccc(N)cc6)nc5c4)ccc3[nH]2)cc1 | < 70

SMILES | growth inhibition at single dose [%]
CC(C)(C)C(=O)Nc1ccc(C(=O)Nc2cccc(-c3nc4ccccc4[nH]3)c2)cc1 | < 70
COc1ccc(CNC(=O)c2cc3c(=O)n4ccccc4nc3n(CCc3ccccc3)c2=N)cc1 | < 70
O=C(Nc1ncccc1O)c1ccc(-n2cnc3ccccc32)cc1 | < 70
c1ccc(-c2ccc(-c3nc4ccccc4[nH]3)cc2)cc1 | < 70
Cc1c(C)n(CCCO)c2ncn3nc(-c4ccccc4)nc3c12 | < 70
CCc1nc2ccccc2n1CC(O)COc1cc(C)ccc1Cl (centres undefined) | < 70
O=C(Nc1ccc(N2CCCCC2)c(Cl)c1)c1ccc(Br)o1 | < 70
Cc1nn(-c2ccc(F)cc2)c(Cl)c1/C=C1\C(=O)Nc2ccccc21 | < 70
COc1ccc2c(c1)CCCC21NC(=O)N(Cc2nc3ccccc3s2)C1=O (centres undefined) | < 70
CC(=O)NC(C)CCc1ccc(C(=O)Cn2ncc(Cl)c(Cl)c2=O)cc1 (centres undefined) | < 70
CNc1nc(-c2[nH]c(C)c(C(=O)OC)c2C)cs1 | < 70
CCOc1ccc(-c2nonc2NC(=O)c2cccc(C)c2)cc1OCC | < 70
N=C(N)c1ccc(-c2cc(-c3ccccc3)on2)cc1 | < 70
CNc1snc(C)c1C(=O)Nc1ccc(OC)c(Cc2ccccc2)c1 | < 70
COc1ccc2cc(CNc3ncnc4n[nH]cc34)ccc2c1 | < 70
CC(C)Cc1ccc(C(C)c2nn3c(-c4ccco4)nnc3s2)cc1 (centres undefined) | < 70
COc1ccc(-c2cnc3ccc(NCc4ccc(S(N)(=O)=O)cc4)nn23)cn1 | < 70
CC1c2cccc(O)c2C(O)=C2C(=O)C3(O)C(O)=C(C(N)=O)C(=O)C(N(C)C)C3C(O)C21 (centres undefined) [Doxycycline] | < 70
Cc1nc(C(=O)N2CCc3c(c(C(=O)NC4CCCC4)nn3CC(C)C)C2)cs1 | < 70
CCCOc1ccc(C(F)(F)F)cc1NC(=O)c1nc2nccc(C)n2n1 | < 70
C=CCNC(=O)C(C)Sc1nnc(-c2ccc(C)cc2)c(-c2ccc(C)cc2)n1 (centres undefined) | < 70
COc1ccc(-c2csc(NC(=O)CN3CCN(c4ncnc5c4cnn5C)CC3)n2)cc1 | < 70
CC(=O)NC[C@@H]1CN(c2ccc(N3CCOCC3)c(F)c2)C(=O)O1 | < 70

SMILES | growth inhibition at single dose [%]
CCCCN(CCCC)S(=O)(=O)c1ccc(NC(=O)c2ccco2)cc1 | < 70
O=C(CC1Sc2ccccc2NC1=O)NCCCn1ccc2ccccc21 (centres undefined) | < 70
Cc1ccccc1OCCSc1nc2ccc(NC(=O)c3cccs3)cc2s1 | < 70
Brc1ccc(-[n+]2nc(-c3ccccc3)nn2-c2nn[nH]n2)cc1 | < 70
Cc1cc(C(=O)CSc2nc3ccccc3[nH]2)c(C)n1CC1CCCO1 (centres undefined) | < 70
C[C@@H]1[C@H](O)[C@@H](C)/C=C/C=C/C=C/C=C/C=C/C=C/C=C/[C@H](O[C@@H]2O[C@H](C)[C@@H](O)[C@H](N)[C@@H]2O)C[C@@H]2O[C@](O)(C[C@@H](O)C[C@@H](O)[C@H](O)CC[C@@H](O)C[C@@H](O)CC(=O)O[C@H]1C)C[C@H](O)[C@H]2C(=O)O | < 70
Cc1nc(/C=C/C(=O)Nc2nc3ccccc3[nH]2)cs1 | < 70
COC(=O)[C@@H](NC(=O)Nc1ccc(-c2nc3ccccc3s2)cc1)C(C)C | < 70
COc1ccc(CCn2c(=N)c(C(=O)NCc3cccnc3)cc3c(=O)n4cccc(C)c4nc32)cc1 | < 70
O=C(Nc1nc(-c2ccccn2)cs1)c1ccc(-n2cncn2)cc1 | < 70
Cc1[nH]c2ccccc2c1/C=N/n1c(-c2ccc(Cl)cc2Cl)cs/c1=N\CC1CCCO1 (centres undefined) | < 70
O=C(NCC1Cc2cccc(-c3ccncc3)c2O1)c1csc2c1CCCC2 (centres undefined) | < 70
O=C(c1cc2ccccc2o1)N1CCN(Cc2ccc3c(c2)OCO3)CC1 | < 70
CNc1snc(C)c1C(=O)OCCOc1ccccc1C(C)=O | < 70
CN1CCN(c2ccc(Cl)cc2NC(=O)c2cccc(Oc3ccccc3)c2)CC1 | < 70
COC(=O)c1cc(OC)c(OC)cc1NS(=O)(=O)c1ccc(OC)cc1 | < 70
CC(C)NCC(=O)Nc1cccc(C(=O)Nc2cccc(C(F)(F)F)c2)c1 | < 70
Cc1cc(O)nc(-n2nc(C)cc2C)n1 | < 70
Cc1cc(C(=O)NCc2nnc3ccccn23)c(C)n1C1CCCCC1 | < 70
COc1ccc(CC(=O)N2CCN(C)c3nc4ccccc4nc32)cc1F | < 70
